Values of other authors as cited in patent US8222245B2, “Oxadiazole derivatives active on sphingosine-1-phosphate (S1P)” (Glaxo Group Limited, priority 2007, dated 2012).

Key:
circulating lymphocytes = details: animals and man
[1] = clinical studies, first 24 hours of treatment

In the case of CCCCCCCCc1ccc(CCC(N)(CO)CO)cc1 [FTY720], the “effect on circulating lymphocytes” value (circulating lymphocytes) is listed as “reduce circulating lymphocytes in animals and man” and the bradycardia on treatment [1] is listed as “bradycardia in the first 24 hours of treatment”.
